Reference: US20160324770A1, “INTRATHECAL ADMINISTRATION, PREFERABLY INTRAVENTRICULAR, OF MTOR INHIBITORS FOR THE THERAPY OF SOME NEURODEGENERATIVE, NEUROINFLAMMATORY AND NEURO-ONCOLOGIC DISEASES” (priority 2012, published 2016)
Where two headings read alike, the source gives them in different places.

What was measured:
[1] = Blood and brain concentrations and metabolites (LC-MS) after intraventricular (intracerebral) administration by osmotic pump; format: in vivo, mice
From the text: (§1) Intraventricular infusion: Under general anaesthesia obtained with Ketamine/Xylazine, Alzet osmotic pumps (http://www.alzet.com/products/guide_to_use/pump_selection.ht ml) were implanted subcutaneously on the back; a catheter leading from the pump reached the cranial vault, where it was connected to a connector (Brain Kit 3, Alzet) stereotaxically implanted in the cranium until reaching the lateral ventricle. These pumps are capable of infusing their content at a constant speed for 1-4 weeks.
A quantitative analysis of everolimus in blood and tissue samples was performed with the isotopic dilution method using the LC-MS technique. The chromatographic system was the following: Agilent 1290 Infinity HPLC equipped with a binary pump and HiP Auto Sampler model G4226A. The injection volume was 2 μL, the analytical column used was a Phenomenex Kinetics PFP UHPLC column (Phenomenex, Milan, Italy) […], 1.7 μm, 100 Å, temperature controlled at 55° C. A gradient elution was performed using as solvent A: water with 5 mM ammonium formiate, solvent B: methanol with 0.1% formic acid. The elution profile was the following: solvent A 30%/solvent B 70% for 3 minutes, solvent A 1%/solvent B 99% from 3 to 6 minutes, at a flow velocity of 0.25 mL/min. This setup enabled an elution time of 2.5 minutes. Every injection was preceded by a cycle of washing the injector system with methanol.
Mass spectrometry was conducted using a Q-TOF MS detector model G6540A (Agilent, Germany) equipped with a Dual AJS ESI (electrospray ionization interface) system. The instrument parameters were the following: sheath gas flow: […], sheath gas temperature: 300° C., gas flow: 6 L/min, gas temperature: 300° C., nebulizer pressure: 35 psi, ion spray voltage: 5500 V.
Both everolimus and the isotopic internal standard were detected as ammonium adducts in the positive ion mode.
Everolimus was extracted from whole blood in 1 mL of a methanol solution containing 10% ammonium acetate in order to enable precipitation of most of the serum protein.
The blood samples were freeze-dried and subsequently extracted. The extraction process was carried out in a sonication bath for approx. 10 minutes to ensure complete haemolysis and release of the drug from the cell material.
The process of extraction from brain samples, divided into right and left hemispheres, was similar to the one for whole blood. The tissue samples were weighed and subsequently freeze-dried. After freeze-drying the samples were finely chopped to facilitate subsequent extraction. 1 mL of the methanol solution was then added to 1% v/v of ammonium formiate with 200 ng/mL of internal standard. The samples were then subjected to 10 minutes of sonication and vortexed to ensure complete extraction of the drug. Then followed centrifugation (10 minutes, 4000 rpm, 10° C.) and the supernatant was separated from the pellet. As previously described, the solutions were purified by means of HybridSPE®-Phospholipid solid-phase extraction cartridges with a total volume of 1 ml (Sigma Aldrich, Milan) to eliminate the excess lipid material. The samples were then immediately submitted to LC-MS analysis.
(§2) We then decided to look for the maximum tolerable dose by intraventricular administration of everolimus at concentrations 10 times higher than those shown in Table 1: A=25 mg/Kg, B=12.5 mg/Kg, C=[…].
Though they could not be quantified, the presence of metabolites deriving from the transformation of the drug has been noted in the table.

[2] = mouse, in vivo, 25 mg/kg
From the text: as §1, §2
Therefore, that dose was ruled out and the mice were sacrificed. […] For the subsequent assessment of therapeutic effectiveness in the different animal models, dose B (12.5 mg/Kg) was selected.

[3] = tested on: EAE (Experimental Autoimmune Encephalomyelite) mice; experiment: EAE mouse model, intraventricular pump from clinical score 1; format: in vivo, SJL/j mice
From the text: (§3) We carried out trials in mouse models exemplifying 3 families of neurological diseases: • EAE (Experimental Autoimmune Encephalomyelite, model of neuroinflammatory disease): SJL/j mice were immunized with two subcutaneous injections, performed 7 days apart, of proteolipid protein (PLP139-151), Freund's adjuvant and inactivated Mycobacterium tuberculosis. The disease severity was rated with a clinical score: 0=healthy; 1=tail weakness; 2=rear limb ataxia and/or paresis; 3=rear limb paralysis and/or front limb paresis; 4=tetraplegia; 5=state of agony or death • AD (Alzheimer's Disease, model of neurodegenerative disease): AD triple transgenic mouse (3xTg-AD) supplied by Jackson Laboratories (http://jaxmice.jax.org/strain/004807.html) Their memory was evaluated using the Passive Avoidance and Radial Maze tests; • TSC (Tuberous sclerosis complex, model of neuro-oncologic disease): TSC1 mouse with TSC1 gene within a flox cassette, supplied by Jackson Laboratories (http://jaxmice.jax.org/strain/005680.html)
30 SJL/j mice were immunized and started developing the disease after 11 days. As they developed the neurological deficit and reached a score of 1, they were operated on and an Alzet 1004 pump containing everolimus or a vehicle was positioned. The purpose of this was to represent the usual clinical situation in which the patient goes to the doctor's on the occasion of the first attack. Generally speaking, a diagnosis is made and a high-dose steroid therapy is applied, with good regression of the symptoms, but in the majority of cases other attacks will occur and they will be followed by an increasingly less satisfactory regression, with a gradual increase in residual disability.
In our experimental set, the weight and clinical score of affected mice were monitored daily.

[4] = tested on: AD triple transgenic mouse (3xTg-AD); experiment: Alzheimer's disease mouse model, intraventricular osmotic pumps; format: in vivo, 3xTg-AD mouse; settings: local application, same dosage as in EAE mice
From the text: as §3
We applied intraventricular catheters and everolimus-secreting osmotic pumps implanted subcutaneously on the back of 12 AD mice for 4 weeks. We infused a vehicle to an equal number of mice. We injected everolimus into 10 healthy mice and, finally, the vehicle into another 10. The appropriate pump was replaced after 4 weeks and kept in place for another 4. […]

[5] = cited from earlier work
[6] = dose A=25 mg/Kg intraventricular, treated 3 days
[7] = dose B=12.5 mg/Kg intraventricular, treated 14 days
[8] = dose C=6.125 mg/Kg intraventricular, treated 14 days

**Q.** With `CO[C@H]1C[C@@H]2CC[C@@H](C)[C@@](O)(O2)C(=O)C(=O)N2CCCC[C@H]2C(=O)O[C@H]([C@H](C)C[C@@H]2CC[C@@H](OCCO)[C@H](OC)C2)CC(=O)[C@H](C)/C=C(\C)[C@@H](O)[C@@H](OC)C(=O)[C@H](C)C[C@H](C)/C=C/C=C/C=C/1C` [everolimus] as the molecule, how does the Metabolites ([1]; dose A, brain field T8 dx) read?
**A.** The Metabolites was “No metabolites”.

**Q.** What about the Metabolites ([1]; dose A, brain field T9 sx) of the same molecule?
**A.** The Metabolites was “No metabolites”.

**Q.** And the “Brain Conc” value [1, 6]?
**A.** The value was 20.4 ng/g.

**Q.** What about the “Conc/250 mg brain, Left hemisphere” value [1, 6] of the same molecule?
**A.** The value was 4.9 ± 2.3 /250 mg brain.

**Q.** And the “Conc/250 mg brain, Right hemisphere” value [1, 6]?
**A.** The value was 5.3 ± 2.8 /250 mg brain.

**Q.** What about the Metabolites ([1]; dose B, brain field T5- dx) of the same molecule?
**A.** The Metabolites was “No metabolites”.

**Q.** What about the Metabolites ([1]; dose B, brain field T6 sx) of the same molecule?
**A.** The Metabolites was “No metabolites”.

**Q.** And the “Brain Conc” value [1, 7]?
**A.** The value was 12 to 16 ng/g.

**Q.** And the “Conc/250 mg brain, Left hemisphere” value [1, 7]?
**A.** The value was 2.91 ± 0.8 /250 mg brain.

**Q.** And the “Conc/250 mg brain, Right hemisphere” value [1, 7]?
**A.** The value was 3.1 ± 1.6 /250 mg brain.

**Q.** And the Metabolites ([1]; dose C, brain field T1- dx)?
**A.** The Metabolites was “No metabolites”.

**Q.** And the Metabolites ([1]; dose C, brain field T1- sx)?
**A.** The Metabolites was “No metabolites”.

**Q.** What about the Metabolites ([1]; dose C, brain field T2- dx) of the same molecule?
**A.** Its Metabolites is “No metabolites”.

**Q.** And the Metabolites ([1]; dose C, brain field T2- sx)?
**A.** The Metabolites was “No metabolites”.

**Q.** And the “Brain Conc” value [1, 8]?
**A.** The value was 11.8 ng/g.

**Q.** And the “Conc/250 mg brain, Left hemisphere” value [1, 8]?
**A.** The value was 2.5 ± 0.2 /250 mg brain.

**Q.** And the “Conc/250 mg brain, Right hemisphere” value [1, 8]?
**A.** The value was 3.4 ± 0.7 /250 mg brain.

**Q.** And the concentration at 3 days ([1]; mouse, whole blood, other: intraventricular infusion by osmotic pump, dose A=25 mg/Kg intraventricular, treated 3 days, read-out: Conc, Blood)?
**A.** Its concentration at 3 days is under 1000 ng/g.

**Q.** What about the concentration at 14 days ([1]; mouse, whole blood, other: intraventricular infusion by osmotic pump, dose B=12.5 mg/Kg intraventricular, treated 14 days, read-out: Conc, Blood) of the same molecule?
**A.** The concentration at 14 days was under 1000 ng/g.

**Q.** What about the concentration at 14 days ([1]; mouse, whole blood, other: intraventricular infusion by osmotic pump, dose C=6.125 mg/Kg intraventricular, treated 14 days, read-out: Conc, Blood) of the same molecule?
**A.** The concentration at 14 days was under 1000 ng/g.

**Q.** What about the Tolerability observations [2] of the same molecule?
**A.** The Tolerability observations was “reduction in spontaneous motility and a very slight weight reduction”.

**Q.** And the “Immunosuppressive effect of intrathecal administration” value ([3]; EAE mice)?
**A.** Its value is “powerful local immunosuppressive effect”.

**Q.** And the “Severity of the following 2 attacks” value ([3]; intraventricular pump implanted at score 1, vs controls)?
**A.** The value was “not much milder than in the controls”.

**Q.** What about the “Severity of the first attack” value ([3]; intraventricular pump implanted at score 1, vs vehicle) of the same molecule?
**A.** Its value is “reduction in the severity of the first attack”.

**Q.** And the “Attacks after the third attack” value ([3]; intraventricular pump, controls continued to have recurring attacks)?
**A.** The value was “no longer manifested attacks”.

**Q.** And the “Clinical score after the third attack” value ([3]; score scale 0=healthy to 5=agony or death)?
**A.** Its value is 0.

**Q.** And the “Body weight after the third attack” value ([3]; treated EAE mice, FIG. 3)?
**A.** Its value is “fully recovered”.

**Q.** What about the “Pharmacological activity observed in AD mice” value [4] of the same molecule?
**A.** The value was “an increase in autophagy”.

**Q.** What about the half-life [5] of the same molecule?
**A.** The half-life was 28 to 32 h.
